In ChEMBL document CHEMBL2046276, “Molecular cloning, characterization, and inhibition studies of a β-carbonic anhydrase from Malassezia globosa, a potential antidandruff target” (J Med Chem, 2012) one finds Ki, MIC and Activity data, which are given here for 16 molecules.

Assay [1] has as its target T1, Carbonic anhydrase (Candida albicans (strain SC5314 / ATCC MYA-2876) (Yeast), UniProt Q5AJ71).
T1 sequence (Q5AJ71 whole entry): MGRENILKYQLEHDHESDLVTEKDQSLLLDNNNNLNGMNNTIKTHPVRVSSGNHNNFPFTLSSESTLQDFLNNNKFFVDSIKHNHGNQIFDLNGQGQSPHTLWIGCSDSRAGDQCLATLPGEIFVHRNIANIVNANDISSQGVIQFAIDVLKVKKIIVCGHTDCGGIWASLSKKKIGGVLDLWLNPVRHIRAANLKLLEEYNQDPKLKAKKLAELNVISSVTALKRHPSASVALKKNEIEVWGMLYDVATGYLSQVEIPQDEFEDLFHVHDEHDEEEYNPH

Assay [2] concerns Malassezia furfur. The assay is described as follows: microbe, parasite or virus in culture. The settings on record: CBS 9569, 168 h.
In assay [3] the test system is Malassezia dermatis. As to the kind of experiment: microbe, parasite or virus in culture. Conditions: CBS 9145, 168 h.
Assay [4] deals with Malassezia pachydermatis. As to the kind of experiment: microbe, parasite or virus in culture. Conditions: CBS 6536, 168 h.
A short description of assay [5]: microbe, parasite or virus in culture. Conditions: Malassezia globosa, CBS 7966, 168 h.
Assay [6] has as its system Malassezia pachydermatis. The assay is described as follows: Antimicrobial activity against Malassezia pachydermatis infected in CD-1 mouse model of dandruff assessed as improvement in skin appearance at 5% cream administered once daily for 6 days measured daily for 20 days. The assay is classed as functional.
The test system of assay [7] is Malassezia pachydermatis. As to the kind of experiment: Antimicrobial activity against Malassezia pachydermatis infected in CD-1 mouse model of dandruff assessed as fungal hyphae fragmentation at 5% cream administered once daily for 6 days measured daily for 20 days. Format: functional.
The test system of assay [8] is Malassezia pachydermatis. As to the kind of experiment: Antimicrobial activity against Malassezia pachydermatis infected in CD-1 mouse model of dandruff assessed as improvement in skin appearance at 2% cream administered once daily for 6 days measured daily for 20 days. The assay is classed as functional.
Assay [9] has as its system Malassezia pachydermatis. As to the kind of experiment: Antimicrobial activity against Malassezia pachydermatis infected in CD-1 mouse model of dandruff assessed as fungal hyphae fragmentation at 2% cream administered once daily for 6 days measured daily for 20 days. Format: functional.

pKi: −log10 of the molar value. In brackets after ≈: the same amount, converted by molar mass. Activity calls are given as the source filed them. The calls are words filed in the database; no cut-off is given here.

In assay [1], `NS(=O)(=O)c1ccc(Br)cc1` had a pKi of 6.05. The MIC in assay [2], in assay [3], in assay [4] and in [5] was 320 µg/mL (≈ 1360 µM) throughout.
With `NS(=O)(=O)Nc1ccc(Br)cc1`, the pKi in assay [1] was 6.12.
Take `Nc1cc(C(F)(F)F)c(S(N)(=O)=O)cc1S(N)(=O)=O` [2,4-DISULFAMYLTRIFLUOROMETHYLANILINE]: the MIC in assay [2] is over 640 µg/mL; in assay [3], over 640 µg/mL; in assay [4] it was over 640 µg/mL; in [5], 320 µg/mL (≈ 1000 µM).
On to `NCc1ccc(S(N)(=O)=O)cc1` [MAFENIDE], for which the MIC in assay [2] came out at 320 µg/mL (≈ 1720 µM); in [3] it was 160 µg/mL (≈ 859 µM); in assay [4], 160 µg/mL (≈ 859 µM); in [5], 160 µg/mL (≈ 859 µM).
Take `Cc1ccc(S(N)(=O)=O)cc1` [P-TOLUENESULFONAMIDE]: the MIC in assay [2] was determined as 640 µg/mL (≈ 3740 µM); in assay [5], 160 µg/mL (≈ 934 µM).
The molecule `NS(=O)(=O)c1ccccc1` [BENZENESULFONAMIDE] showed a pKi in assay [1] of 5.63. Further, the MIC in assay [2] is 160 µg/mL (≈ 1020 µM); in assay [3], over 640 µg/mL; in assay [4], 160 µg/mL (≈ 1020 µM); in assay [5], 320 µg/mL (≈ 2040 µM).
For `Nc1ccc(S(N)(=O)=O)cc1` [SULFANILAMIDE], the MIC turned out to be 80 µg/mL (≈ 465 µM) in [2], 160 µg/mL (≈ 929 µM) in [3], 10 µg/mL (≈ 58.1 µM) in assay [4] and 80 µg/mL (≈ 465 µM) in assay [5].
For the molecule `NCCc1ccc(S(N)(=O)=O)cc1`, in assay [6], the Activity worked out at 67%. In addition, the result in assay [7] was Active. Further, the MIC in assay [2] came out at 640 µg/mL (≈ 3200 µM); in assay [3], 640 µg/mL (≈ 3200 µM); in [4], 640 µg/mL (≈ 3200 µM); in assay [5], 320 µg/mL (≈ 1600 µM).
Take `Nc1cc(Cl)c(S(N)(=O)=O)cc1S(N)(=O)=O`: the MIC in assay [2], in [3], in assay [4] and in assay [5] was 640 µg/mL (≈ 2240 µM) each time.
As for `Nc1ccccc1S(N)(=O)=O`, the MIC in [2] is 640 µg/mL (≈ 3720 µM); in [3], 640 µg/mL (≈ 3720 µM); in [4] it was over 640 µg/mL; in assay [5], 640 µg/mL (≈ 3720 µM).
Regarding `NS(=O)(=O)c1ccc(C(=O)O)cc1` [CARZENIDE], the MIC in [2] was over 640 µg/mL; in [3] it was over 640 µg/mL; in [4] it was 640 µg/mL (≈ 3180 µM); in assay [5], 640 µg/mL (≈ 3180 µM).
`NS(=O)(=O)Nc1ccccc1` [PHENYLSULFAMIDE] showed a pKi in [1] of 5.72.
As to `NS(=O)(=O)c1cc(Cl)c(Cl)c(S(N)(=O)=O)c1` [DICHLORPHENAMIDE], the MIC in assay [2] is over 640 µg/mL; in assay [3], over 640 µg/mL; in [4] it was over 640 µg/mL; in assay [5] it was 320 µg/mL (≈ 1050 µM).
`NS(=O)(=O)Oc1ccc(Br)cc1`: in [1], the negative-log Ki (pKi) is 6.15.
In the case of `CC(=O)N1CCN(c2ccc(OCC3COC(Cn4ccnc4)(c4ccc(Cl)cc4Cl)O3)cc2)CC1` (configuration not stated), the result in assay [8] and in [9] was Active.
`NS(=O)(=O)Oc1ccccc1` [PHENYLSULFAMATE] had a negative logarithm of the Ki (pKi) in assay [1] of 5.70.

The pKi is the negative decadic logarithm of the Ki, by convention in mol/L. A high value points to a low Ki.
